Assays:
[1] = target: Epidermal growth factor receptor (Homo sapiens, UniProt P00533); assay type: cell-based, A-431
A-431 = assay: Antiproliferative activity against human A431 cells after 48 hrs by CYQUANT assay; assay type: functional, cell-based; conditions: A-431, 48 h
[2] = target: T1, Bifunctional dihydrofolate reductase-thymidylate synthase (Toxoplasma gondii, UniProt Q07422); assay: Inhibition of Toxoplasma gondii DHFR
T1 sequence (Q07422 whole entry): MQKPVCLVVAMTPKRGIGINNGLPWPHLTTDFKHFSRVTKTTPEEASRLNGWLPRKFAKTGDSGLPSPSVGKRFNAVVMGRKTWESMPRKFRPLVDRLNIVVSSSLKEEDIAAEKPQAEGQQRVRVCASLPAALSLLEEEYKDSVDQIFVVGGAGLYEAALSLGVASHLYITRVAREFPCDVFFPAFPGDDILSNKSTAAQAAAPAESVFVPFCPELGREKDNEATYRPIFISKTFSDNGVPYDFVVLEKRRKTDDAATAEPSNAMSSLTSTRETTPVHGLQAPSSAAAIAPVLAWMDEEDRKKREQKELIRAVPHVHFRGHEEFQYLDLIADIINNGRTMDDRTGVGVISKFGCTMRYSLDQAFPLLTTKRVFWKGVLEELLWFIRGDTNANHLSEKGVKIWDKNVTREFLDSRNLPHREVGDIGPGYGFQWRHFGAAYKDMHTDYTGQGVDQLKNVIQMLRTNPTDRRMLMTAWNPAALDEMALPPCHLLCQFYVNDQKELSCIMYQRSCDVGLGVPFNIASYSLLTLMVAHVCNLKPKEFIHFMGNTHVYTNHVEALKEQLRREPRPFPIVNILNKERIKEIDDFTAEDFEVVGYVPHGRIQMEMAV

Thymidylate synthase = Thymidylate synthase (Homo sapiens, UniProt P04818); assay: Inhibition of human thymidylate synthase
[3] = Inhibition of Escherichia coli thymidylate synthase
[4] = target: T1, Bifunctional dihydrofolate reductase-thymidylate synthase; assay: Inhibition of Toxoplasma gondii thymidylate synthase
Dihydrofolate reductase = target: T2, Dihydrofolate reductase (Homo sapiens, UniProt P00374)
T2 sequence (P00374 whole entry): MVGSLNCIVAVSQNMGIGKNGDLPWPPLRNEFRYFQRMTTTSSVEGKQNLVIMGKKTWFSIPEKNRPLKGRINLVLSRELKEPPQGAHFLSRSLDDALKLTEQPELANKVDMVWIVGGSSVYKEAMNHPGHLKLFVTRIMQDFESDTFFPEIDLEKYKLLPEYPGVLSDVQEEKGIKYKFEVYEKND

[5] = target: Vascular endothelial growth factor receptor 2 (Homo sapiens, UniProt P35968); assay type: cell-based, U-251
[6] = Antiangiogenic activity in VEGF/bFGF-stimulated chicken embryo after 48 hrs by CAM assay; assay type: functional, Gallus gallus
[7] = target: Platelet-derived growth factor receptor beta (Homo sapiens, UniProt P09619); assay: Inhibition of PDGFRbeta in human SF539 cells pretreated for 60 mins measured after 10 mins by ELISA
[8] = target: Dihydroorotate dehydrogenase (quinone), mitochondrial (Homo sapiens, UniProt Q02127); assay: Inhibition of human DHODH
[9] = target: T3, Dihydroorotate dehydrogenase (Plasmodium falciparum, UniProt Q54A96); assay: Inhibition of Plasmodium falciparum DHODH
T3 sequence (Q54A96 whole entry): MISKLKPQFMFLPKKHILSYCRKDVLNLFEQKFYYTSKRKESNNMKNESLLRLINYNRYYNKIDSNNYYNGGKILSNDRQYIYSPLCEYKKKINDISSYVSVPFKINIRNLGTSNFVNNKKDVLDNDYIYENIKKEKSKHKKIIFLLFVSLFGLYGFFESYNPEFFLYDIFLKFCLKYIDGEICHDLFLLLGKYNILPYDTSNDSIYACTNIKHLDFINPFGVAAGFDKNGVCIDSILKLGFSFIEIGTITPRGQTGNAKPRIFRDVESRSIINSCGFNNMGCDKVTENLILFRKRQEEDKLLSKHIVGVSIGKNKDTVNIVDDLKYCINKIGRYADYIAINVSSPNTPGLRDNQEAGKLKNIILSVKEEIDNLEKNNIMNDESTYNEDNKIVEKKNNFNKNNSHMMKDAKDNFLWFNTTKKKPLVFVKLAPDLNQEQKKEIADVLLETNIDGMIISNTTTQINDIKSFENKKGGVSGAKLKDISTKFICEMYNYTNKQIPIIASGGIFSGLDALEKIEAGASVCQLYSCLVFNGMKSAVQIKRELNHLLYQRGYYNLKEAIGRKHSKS

Chain of Platelet-derived growth factor receptor beta (P09619 whole entry): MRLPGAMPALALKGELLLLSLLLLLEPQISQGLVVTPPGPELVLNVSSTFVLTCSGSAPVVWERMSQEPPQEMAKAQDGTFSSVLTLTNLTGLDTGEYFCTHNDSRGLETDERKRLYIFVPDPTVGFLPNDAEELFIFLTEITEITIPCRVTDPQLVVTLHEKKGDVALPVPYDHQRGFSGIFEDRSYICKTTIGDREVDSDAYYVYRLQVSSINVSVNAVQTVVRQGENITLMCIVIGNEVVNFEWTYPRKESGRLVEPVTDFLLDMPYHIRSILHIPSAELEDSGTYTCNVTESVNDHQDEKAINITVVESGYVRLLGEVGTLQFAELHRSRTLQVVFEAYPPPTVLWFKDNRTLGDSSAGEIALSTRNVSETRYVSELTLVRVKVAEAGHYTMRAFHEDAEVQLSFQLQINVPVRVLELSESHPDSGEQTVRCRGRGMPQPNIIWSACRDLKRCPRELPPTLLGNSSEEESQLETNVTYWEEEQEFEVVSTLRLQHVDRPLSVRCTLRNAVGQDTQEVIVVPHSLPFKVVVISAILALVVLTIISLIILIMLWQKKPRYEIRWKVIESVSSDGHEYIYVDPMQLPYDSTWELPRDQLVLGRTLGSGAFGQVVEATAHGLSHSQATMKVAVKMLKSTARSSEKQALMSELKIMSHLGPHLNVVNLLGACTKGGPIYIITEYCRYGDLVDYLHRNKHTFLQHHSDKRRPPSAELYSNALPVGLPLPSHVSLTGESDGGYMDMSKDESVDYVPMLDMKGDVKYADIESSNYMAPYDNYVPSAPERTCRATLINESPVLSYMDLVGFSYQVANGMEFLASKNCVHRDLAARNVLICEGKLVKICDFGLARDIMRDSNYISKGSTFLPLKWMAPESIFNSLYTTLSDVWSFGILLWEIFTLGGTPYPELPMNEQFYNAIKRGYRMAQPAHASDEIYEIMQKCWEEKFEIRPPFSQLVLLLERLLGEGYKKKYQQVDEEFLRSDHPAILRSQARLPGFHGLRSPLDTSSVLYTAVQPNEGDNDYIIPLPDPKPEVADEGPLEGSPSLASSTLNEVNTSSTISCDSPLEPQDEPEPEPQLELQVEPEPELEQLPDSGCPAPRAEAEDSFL
Chain of Epidermal growth factor receptor (P00533 whole entry): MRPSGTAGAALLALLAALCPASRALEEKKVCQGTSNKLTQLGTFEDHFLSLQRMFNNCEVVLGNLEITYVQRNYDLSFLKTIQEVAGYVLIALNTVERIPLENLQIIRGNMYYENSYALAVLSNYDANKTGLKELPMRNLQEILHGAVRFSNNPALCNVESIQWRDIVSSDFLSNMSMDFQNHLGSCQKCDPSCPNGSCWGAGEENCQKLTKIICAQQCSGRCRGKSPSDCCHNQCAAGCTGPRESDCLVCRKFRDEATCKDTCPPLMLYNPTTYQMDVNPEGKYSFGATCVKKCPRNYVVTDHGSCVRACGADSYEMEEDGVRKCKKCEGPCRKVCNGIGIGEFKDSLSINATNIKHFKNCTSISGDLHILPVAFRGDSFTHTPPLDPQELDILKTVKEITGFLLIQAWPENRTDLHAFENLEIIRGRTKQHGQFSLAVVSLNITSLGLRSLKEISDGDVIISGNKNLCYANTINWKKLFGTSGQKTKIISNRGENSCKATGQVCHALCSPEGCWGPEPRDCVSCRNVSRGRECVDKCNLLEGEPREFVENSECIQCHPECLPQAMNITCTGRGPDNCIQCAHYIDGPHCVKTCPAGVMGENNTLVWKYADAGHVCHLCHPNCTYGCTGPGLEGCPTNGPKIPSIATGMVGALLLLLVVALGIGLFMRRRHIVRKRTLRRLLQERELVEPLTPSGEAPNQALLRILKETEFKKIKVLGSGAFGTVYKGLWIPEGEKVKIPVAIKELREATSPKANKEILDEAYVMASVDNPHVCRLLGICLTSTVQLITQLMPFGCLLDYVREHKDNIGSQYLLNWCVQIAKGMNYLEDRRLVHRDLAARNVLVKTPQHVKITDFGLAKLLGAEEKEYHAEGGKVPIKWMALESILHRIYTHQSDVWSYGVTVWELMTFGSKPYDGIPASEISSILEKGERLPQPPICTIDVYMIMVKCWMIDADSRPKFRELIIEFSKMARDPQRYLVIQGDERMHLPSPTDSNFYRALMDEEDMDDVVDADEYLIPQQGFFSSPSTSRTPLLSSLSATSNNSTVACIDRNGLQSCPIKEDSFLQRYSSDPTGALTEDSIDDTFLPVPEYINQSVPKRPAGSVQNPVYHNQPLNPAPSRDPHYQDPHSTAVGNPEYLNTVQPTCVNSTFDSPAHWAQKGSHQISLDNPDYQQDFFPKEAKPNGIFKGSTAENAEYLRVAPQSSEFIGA
Chain of Vascular endothelial growth factor receptor 2 (P35968 whole entry): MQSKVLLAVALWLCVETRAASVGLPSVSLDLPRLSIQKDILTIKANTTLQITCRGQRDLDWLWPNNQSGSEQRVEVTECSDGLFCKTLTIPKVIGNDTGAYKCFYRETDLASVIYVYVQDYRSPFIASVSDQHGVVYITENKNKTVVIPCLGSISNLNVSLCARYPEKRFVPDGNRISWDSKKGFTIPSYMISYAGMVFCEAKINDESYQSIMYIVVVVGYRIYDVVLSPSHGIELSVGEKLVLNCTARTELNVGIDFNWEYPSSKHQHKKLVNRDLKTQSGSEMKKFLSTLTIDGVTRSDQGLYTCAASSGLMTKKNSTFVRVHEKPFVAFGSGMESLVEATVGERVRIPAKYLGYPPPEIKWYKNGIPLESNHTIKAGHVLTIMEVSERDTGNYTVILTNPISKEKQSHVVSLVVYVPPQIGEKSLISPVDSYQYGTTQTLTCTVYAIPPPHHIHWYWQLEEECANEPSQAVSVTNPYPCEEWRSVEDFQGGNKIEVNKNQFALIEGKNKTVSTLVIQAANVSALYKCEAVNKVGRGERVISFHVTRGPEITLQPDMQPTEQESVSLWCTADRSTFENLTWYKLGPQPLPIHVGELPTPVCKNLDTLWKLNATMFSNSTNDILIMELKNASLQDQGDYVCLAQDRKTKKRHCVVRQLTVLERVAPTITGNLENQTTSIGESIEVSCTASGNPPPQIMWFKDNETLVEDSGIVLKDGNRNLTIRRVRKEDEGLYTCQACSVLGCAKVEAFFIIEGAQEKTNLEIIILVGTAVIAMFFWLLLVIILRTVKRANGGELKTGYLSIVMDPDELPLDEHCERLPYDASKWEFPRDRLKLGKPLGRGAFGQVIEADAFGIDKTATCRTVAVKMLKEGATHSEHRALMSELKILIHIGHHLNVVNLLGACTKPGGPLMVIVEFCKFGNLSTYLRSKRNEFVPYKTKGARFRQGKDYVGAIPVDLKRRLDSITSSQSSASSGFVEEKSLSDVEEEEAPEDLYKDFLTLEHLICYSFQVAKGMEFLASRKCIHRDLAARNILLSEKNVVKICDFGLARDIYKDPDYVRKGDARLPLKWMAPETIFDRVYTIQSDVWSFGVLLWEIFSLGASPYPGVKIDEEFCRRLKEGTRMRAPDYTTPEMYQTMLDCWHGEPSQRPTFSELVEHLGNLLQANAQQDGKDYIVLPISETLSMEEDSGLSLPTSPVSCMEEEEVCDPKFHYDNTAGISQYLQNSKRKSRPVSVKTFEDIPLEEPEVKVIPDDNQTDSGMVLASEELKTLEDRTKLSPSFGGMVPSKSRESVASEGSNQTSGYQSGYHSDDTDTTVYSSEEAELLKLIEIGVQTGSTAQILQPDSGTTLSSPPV
Chain of Thymidylate synthase (P04818 whole entry): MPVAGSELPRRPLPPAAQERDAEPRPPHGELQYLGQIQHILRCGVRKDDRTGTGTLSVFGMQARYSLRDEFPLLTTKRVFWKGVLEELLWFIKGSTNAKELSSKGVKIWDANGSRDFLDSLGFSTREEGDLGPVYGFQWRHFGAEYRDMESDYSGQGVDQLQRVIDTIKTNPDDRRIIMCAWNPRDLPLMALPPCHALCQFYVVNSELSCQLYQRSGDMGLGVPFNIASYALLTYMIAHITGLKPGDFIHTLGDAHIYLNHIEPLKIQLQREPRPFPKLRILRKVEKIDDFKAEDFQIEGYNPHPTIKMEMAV
Chain of Dihydroorotate dehydrogenase (quinone), mitochondrial (Q02127 whole entry): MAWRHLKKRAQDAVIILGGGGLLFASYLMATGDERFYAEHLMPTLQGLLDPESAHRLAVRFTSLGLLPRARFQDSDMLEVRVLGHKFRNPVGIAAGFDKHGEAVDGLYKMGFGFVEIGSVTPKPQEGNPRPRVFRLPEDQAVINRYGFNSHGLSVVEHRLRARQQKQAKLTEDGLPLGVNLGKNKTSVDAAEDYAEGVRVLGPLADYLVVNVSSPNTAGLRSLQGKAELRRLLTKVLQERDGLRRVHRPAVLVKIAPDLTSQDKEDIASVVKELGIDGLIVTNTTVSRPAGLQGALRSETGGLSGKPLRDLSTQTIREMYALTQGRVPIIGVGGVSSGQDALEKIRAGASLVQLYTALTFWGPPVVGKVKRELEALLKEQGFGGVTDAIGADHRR

SMILES | IC50 [1] | IC50 (A-431) | IC50 [2] | IC50 (Thymidylate synthase) | IC50 [3] | IC50 [4] | IC50 (Dihydrofolate reductase) | IC50 [5] | IC50 [6] | IC50 [7] | IC50 [8] | IC50 [9]
Nc1nc2c(c(Nc3ccc(F)c(Cl)c3)n1)-c1ccccc1C2 | > 200 µM | 158 µM | > 16 µM | > 13 µM | > 13 µM | > 13 µM | > 16 µM |  |  |  |  | 
CC(C)c1ccccc1Nc1nc(N)nc2c1-c1ccccc1C2 | > 200 µM | 126 µM |  |  |  |  |  | > 200 µM | 2.12 µM |  |  | 
CC(C)c1ccc(Nc2nc(N)nc3c2-c2ccccc2C3)cc1 |  | 126 µM | > 16 µM | > 14 µM | > 14 µM | > 14 µM | > 16 µM |  |  |  |  | 
Nc1nc2c(c(Nc3ccc(C(F)(F)F)cc3)n1)-c1ccccc1C2 | > 300 µM | 306 µM |  |  |  |  |  | > 200 µM | 8.1 µM | 23.1 µM |  | 
Nc1nc2c(c(Nc3ccc(F)cc3)n1)-c1ccccc1C2 | 276 µM | 50.3 µM |  |  |  |  |  | 89.3 µM | 46.7 µM | 5.9 µM |  | 
COc1cccc(Nc2nc(N)nc3c2-c2ccccc2C3)c1 | > 200 µM | 13.9 µM |  |  |  |  |  |  |  |  | > 200 µM | > 200 µM
Nc1nc2c(c(Nc3cccc(Cl)c3)n1)-c1ccccc1C2 |  | 235 µM |  |  |  |  |  |  |  | > 500 µM |  | 

— ChEMBL document CHEMBL2046359, “Novel tricyclic indeno[2,1-d]pyrimidines with dual antiangiogenic and cytotoxic activities as potent antitumor agents” (Bioorg Med Chem, 2012)
